Values of other authors as cited in patent publication US10888120B2, “Non-tobacco nicotine containing article” (Philip Morris Products S.A., priority 2013, dated 2021).

Conditions: "experienced" ENDS users (using ENDS for about 1 year)

**Q.** Which “plasma nicotine concentration (Cmax)” value does the source give for `CN1CCCC1c1cccnc1` (stereo not shown) [nicotine] here?
**A.** 10.3 ng/mL
